Data reported in US9629828B2, “Methods of treating traveler's diarrhea and hepatic encephalopathy” (priority 2008, dated 2017).

Tests used:
[1] = system: subjects with a history of recurrent, overt, episodic HE; assay: Second study: changes in Conn scores and asterixis grades; type: in vivo, human
Description: Normalizing for subject exposure, this represents a hospitalization rate of 0.60 event/PEY. A total of 59 were hospitalized due HE episodes (e.g., HE-caused). Normalizing for subject exposure, this represents an HE-caused hospitalization rate of 0.29 event/PEY. […] All subjects were capable of worsening over time, and 24/266 subjects (9.0%) did so by 1 or 2 grades.
The last visit for the second study is the last visit recorded for the interim analysis.
A total of 65.5% of subjects (220 of 337) had no change in Conn score and 21.1% (71 of 337) had improvements in Conn score from baseline to last visit. […] No change from baseline in asterixis grade was reported for 75.2% of subjects (252 of 337), and 17.3% had improvements.

[2] = system: subjects in remission from hepatic encephalopathy (HE); assay: First study: critical flicker frequency (CFF) test; type: in vivo, human; details: for Critical flicker frequency test: r9 Mean, r11 Median, r12 Min, r13 Max; for Mean (SD) change in CFF result: baseline to end of treatment
Description: The Critical Flicker Frequency (CFF) was assessed for each subject at screening, baseline, visits 3 through 14 and the end of study visit using the Lafayette Flicker Fusion (Lafayette Instrument Company, Inc). Circular light pulses with a 1:1 ratio between the visual impulse and the interval were used with decreasing frequency in gradual steps of 0.5 to 0.1 Hz/second. The frequency of the white light, which is initially generated as a high-frequency pulse (50 Hz) and which gives the patient the impression of a steady light, was reduced gradually until the patient had the impression that the steady light had changed to a flicker. The patient registered this change by pressing a hand-held switch. […] The process was conducted in a quiet, semi-darkened room without distracting noises and took about 10 minutes.
The critical flicker frequency (CFF) was assessed for each subject using a specialized CFF instrument. The CFF is the frequency at which the subject observes a constant light transition to a flickering light and is measured in Hertz (Hz). CFF is an objective assessment of mental status.
The CFF was measured on a continuous scale and was the mean of 8 separate fusion-to-flicker transition tests performed in rapid succession.
Mean values and mean changes from baseline in blood ammonia concentration and critical flicker frequency values were collected. Analyses of blood ammonia concentrations and critical flicker frequency values were based upon quantitative values (not qualitative grades). Treatment differences for mean change from baseline in these parameters was estimated using a mixed effects model with fixed effects for time and baseline value.

rats = assay: in vivo; details: rat
Description: (§1) However, plasma drug levels were not measured in these studies. […] The maximum plasma AUC0-8 hr values from the 6 month rat and 9 month dog toxicity studies (range: 42-127 ng·h/mL) was lower than the maximum plasma AUC0-8 hr values in cirrhotic patients (range: 19-306 ng·h/mL).

in vivo = details: rat
Description: as §1

Tg.rasH2 mice = details: Tg.rasH2, mouse, in vivo, 26 weeks
[3] = all rifaximin experience, 337 subjects

## CO[C@H]1/C=C/O[C@@]2(C)Oc3c(C)c(O)c4c(O)c(c5c(nc6cc(C)ccn65)c4c3C2=O)NC(=O)/C(C)=C\C=C\[C@H](C)[C@H](O)[C@@H](C)[C@@H](O)[C@@H](C)[C@H](OC(C)=O)[C@@H]1C [rifaximin, (2S,16Z,18E,20S,21S,22R,23R,24R,25 S,26S,27S,28E)-5,6,21,23,25-pentahydroxy-27-methoxy-2,4,11,16,20,22,24,26-octamethyl-2,7-(epoxypentadeca-[1,11,13]trienimino)benzofuro[4,5-e]pyrido[1,2-á]-benzimidazole-1,15(2H)-dione,25-acetate]
[1]; 67 subjects
  subjects improved among those entering with asterixis scores of 1, 2, or 3: 64.2%
  subjects with 1-grade asterixis improvement: 50.7%
  subjects with 2-grade asterixis improvement: 6.0%
  subjects with 3-grade asterixis improvement: 7.5%
[1]; 70 subjects
  subjects with worsening asterixis, continuing rifaximin: 8.6%
[1]; 84 subjects
  subjects improved among those entering with Conn scores of 1, 2, or 3: 64.3%
  subjects with 1-grade Conn improvement: 56.0%
  subjects with 2-grade Conn improvement: 8.3%
[1]; 99 subjects
  subjects improved in asterixis grade among those entering with grade ≧1: 58.6%
[1]; 118 subjects
  subjects improved to Conn score 0 among those entering with Conn ≧1: 62.2%
[1]; 196 subjects
  subjects with worsening asterixis, new rifaximin: 6.1%
[1]; 266 subjects
  subjects with Conn worsening by 1 or 2 grades: 9.0%
  subjects with improvements in Conn scores at last visit: 20.3%
  subjects with improvements in asterixis scores: 16.2%
  subjects with mental status maintained or improved: 91%
  subjects with neuromotor symptoms maintained: 83.3%
  subjects with no change in Conn score at last visit: 70.7%
  subjects with no change in asterixis at last visit: 77.1%
[1]; all rifaximin experience
  subjects with improvements in asterixis grade: 17.3%
  subjects with maintenance or improvements in asterixis grades: > 90%
[1]; [3]
  subjects with improvements in Conn score: 21.1%
  subjects with no change in Conn score: 65.5%
  subjects with no change in asterixis grade: 75.2%
[1]; all rifaximin experience, up to 840 days
  subjects with maintenance or improvement in Conn scores: > 85%
[2]; Baseline
  Mean (SD) CFF result: 36.90 (5.47) Hz
[2]; Day 140, mean
  Critical flicker frequency test: 38.7 Hz
[2]; Day 140, median
  Critical flicker frequency test: 38.9 Hz
[2]; EOT, median
  Critical flicker frequency test: 37.8 Hz
[2]; End of treatment
  Mean (SD) CFF result: 37.81 (4.88) Hz
[2]
  Mean (SD) change in CFF result: 0.945 (±4.75) Hz
[2]; listed as Rifaximin
  Mean (SD) change in CFF result: 0.945 (4.75) Hz
[2]; in vivo
  improvement in CFF results compared with placebo: statistically significant greater improvement
rats
  toxic effects: negligible toxic effects
In vivo
  AUC(0-t): 42 to 127 ng·h/mL
Tg.rasH2 mice
  female mice with ruffled fur and hunched appearance: 2/25
